System: cardiac gene expression
Test: Microarray analysis of cardiac gene expression (GeneChip Mouse Genome 430 2.0)
Type: in vivo, mice
Details: mouse heart, vs isoproterenol only (CH)
Experimental: Microarray Sample Preparation and Analysis. Animal hearts were rapidly removed, and the atria and right ventricles were cut and immediately plunged into TRIzol Reagent (Life Technologies). Total RNA was isolated following the manufacturer's instructions, purified by phenol-chloroform extraction and then ethanol precipitation, and 20 μg further processed for microarray analysis. Briefly, cDNA synthesis, in vitro transcription, and labeling and fragmentation to produce the oligonucleotide probes were performed as instructed by the GeneChip manufacturer (Affymetrix). The probes were first hybridized to a test array (Affymetrix) and then to the GeneChip Mouse Genome 430 2.0 Array, using the GeneChip Hybridization Oven 640. The chips were washed in a GeneChip Fluidics Station 450 (Affymetrix), and the results were visualized with a GeneChip G7 scanner (Affymetrix). RMA normalization, pairwise comparisons, Student's t test and Benjamini and Hochberg correction were subsequently performed using GeneSifter (VizX Labs, Seattle, Wash.) and Spotfire DecisionSite 8.3 (Spotfire, Inc., Somerville, Mass.).
Effects on Gene Expression Profile. […] One mouse heart was used for each array, and was performed in triplicate, generating a total of 12 arrays. GeneSifter was used to perform RMA normalization, pairwise comparisons of averaged signal intensity values, and Student's t-test with Benjamini and Hochberg correction, and Spotfire was used to perform pairwise comparisons. […] Additionally, genes that were altered between any two N or cardiac hypertrophy samples were removed, as these alterations most likely represented normal variations between mice.

C[C@H]1c2cccc(O)c2C(=O)C2=C(O)[C@]3(O)C(=O)C(C(N)=O)=C(O)[C@@H](N(C)C)[C@@H]3[C@@H](O)[C@@H]21 [doxycycline]
FC cDNA, AK012898 (CH vs normal 3.3): −2.9 fold
FC Cyclin G2 (Ccng2), NM_007635 (CH vs normal 3.4): −3.1 fold
FC TRAF2 and K interacting kinase (Tnik), AI117633 (CH vs normal 3.4): −3.4 fold
FC cDNA, BB098431 (CH vs normal 3.4): −1.8 fold
FC Interleukin-1 receptor-associated kinase 3 (Irak3), AV228493 (CH vs normal 3.5): −2.1 fold
FC CD163 antigen (CD163), NM_053094 (CH vs normal 3.6): −2.1 fold
FC ATP-binding cassette, sub-family A (ABC1), member 1 (Abca1), BB305534 (CH vs normal 3.7): −1.9 fold
FC Mcf.2 transforming sequee-like (Mcf21), AV293368 (CH vs normal 3.7): −2.3 fold
FC cDNA, BE956710 (CH vs normal 3.7): −4.4 fold
FC cDNA, BG276629 (CH vs normal 3.7): −3.1 fold
FC Lipopolysaccharide binding protein (Lbp), NM_008489 (CH vs normal 3.8): −3.4 fold
FC Alcohol dehydrogenase 1, complex (Adh1), BC013477 (CH vs normal 3.9): −3.4 fold
FC Nuclear factor of kappa light polypeptide gene enhaer in B-cells inhibitor, zeta (Nfkbiz), NM_030612 (CH vs normal 3.9): −2.7 fold
FC cDNA, BB038506 (CH vs normal 3.9): −2.1 fold
FC Alpha-2-HS-glycoprotein (Ahsg), AI256465 (CH vs normal 4.0): −2.7 fold
FC BCL2/adenovirus E1B interacting protein 1, NIP3 (Bnip3), NM_009760 (CH vs normal 4.1): −2.0 fold
FC Chitinase 3-like 3 (Chi313), NM_009892 (CH vs normal 4.1): −4.1 fold
FC Colony stimulating factor 2 receptor, beta 2, low-affinity (granulocyte-macrophage) (Csf2rb2), NM_007781 (CH vs normal 4.1): −2.9 fold
FC NADPH oxidase 4 (Nox4), BC021378 (CH vs normal 4.3): −3.2 fold
FC Calcium-sensitive chloride conductae protein-1 (Clca1), AF047838 (CH vs normal 4.4): −3.6 fold
FC Connector enhaer of kinase suppressor of Ras 1 (Cnksr1), BB739754 (CH vs normal 4.4): −3.6 fold
FC cDNA, AK008807 (CH vs normal 4.5): −2.7 fold
FC Arrestin domain containing 2 (Arrdc2), AW542672 (CH vs normal 4.6): −3.5 fold
FC cDNA, BM117672 (CH vs normal 4.6): −3.2 fold
FC Serum amyloid A 3 (Saa3), NM_011315 (CH vs normal 4.7): −4.1 fold
FC Caer related gene-liver 1 (CRG-L1), AF282864 (CH vs normal 4.9): −3.0 fold
FC Calcium/calmodulin-dependent protein kinase II, beta (Camk2b), BG862223 (CH vs normal 4.9): −4.0 fold
FC Aryl hydrocarbon receptor nuclear translocator-like (Arnt1), BC011080 (CH vs normal 5.0): −5.1 fold
FC Oostatin receptor (Osmr), NM_011019 (CH vs normal 5.1): −2.6 fold
FC cDNA, BE634869 (CH vs normal 5.2): −2.8 fold
FC cDNA, BB795572 (CH vs normal 5.3): −2.3 fold
FC cDNA, AK009753 (CH vs normal 5.4): −3.0 fold
FC cDNA, AI607873 (CH vs normal 5.5): −4.0 fold
FC Cytokine inducible SH2-containing protein 3 (Socs3), BB241535 (CH vs normal 6.0): −3.5 fold
FC Apolipoprotein D (Apod), NM_007470 (CH vs normal 6.4): −3.4 fold
FC Cytochrome P450, 1b1, benz(a)anthracene inducible (Cyp1b1), NM_009994 (CH vs normal 6.4): −3.2 fold
FC Membrane-spanning 4-domains, subfamily A, member 6d (Ms4a6d), NM_026835 (CH vs normal 6.4): −2.3 fold
FC mVL30-1 retroelement mRNA sequee, BG066678 (CH vs normal 6.6): −4.2 fold
FC Proteoglycan 4 (megakaryocyte stimulating factor, articular superficial zone protein) (Prg4), NM_021400 (CH vs normal 6.8): −3.3 fold
FC cDNA, BF719154 (CH vs normal 7.0): −3.2 fold
FC CCAATenhaer binding protein (CEBP), delta (Cebpd), BB831146 (CH vs normal 7.4): −4.1 fold
FC Ca(2+)-sensitive chloride channel 2 (Clca2), AF108501 (CH vs normal 7.4): −5.1 fold
FC Lysyl oxidase (Lox), M65143 (CH vs normal 7.4): −2.7 fold
FC cDNA, AU018141 (CH vs normal 7.8): −3.2 fold
FC Cytokine inducible SH2-containing protein 3 (Socs3), BB831725 (CH vs normal 8.2): −4.9 fold
FC cDNA, BF682848 (CH vs normal 10.6, first BF682848 line): −5.7 fold
FC C-type (calcium dependent, carbohydrate recognition domain) lectin, superfamily member 8 (Clecsf8), NM_010819 (CH vs normal 10.8): −2.7 fold
FC Lysyl oxidase (Lox), NM_010728 (CH vs normal 11.1): −3.0 fold
FC Cyclin-dependent kinase inhibitor 1A (p21) (Cdkn1a), AK007630 (CH vs normal 14.6): −6.5 fold
FC FK506 binding protein 5 (51 kDa) (Fkbp5), BC015260 (CH vs normal 16.3): −4.5 fold
FC cDNA, BF682848 (CH vs normal 21.4, second BF682848 line): −5.2 fold
FC Lipocalin 2 (Lcn2), X14607 (CH vs normal 27.7): −13.3 fold
FC Serine protease inhibitor 2-2 (Spi2-2) (Serpin3n), NM_009252 (CH vs normal 40.5): −9.7 fold
FC Metallophosphoesterase domain containing 2 (Mpped2), AK012553 (CH vs normal −1.5): 2.0 fold
FC ATP-sensitive potassium channel subunit (Kir6.2) (Kcnj11), U73626 (CH vs normal −1.6): 1.8 fold
FC CD99 antigen (CD99), AK002762 (CH vs normal −1.6): 1.6 fold
FC CD248 antigen, endosialin (CD248), NM_054042 (CH vs normal −1.6): 1.7 fold
FC cDNA, BB627097 (CH vs normal −1.6): 2.4 fold
FC cDNA, BM229539 (CH vs normal −1.6): 2.1 fold
FC Cytoplasmic polyadenylation element binding protein 3 (Cpeb3), BB281000 (CH vs normal −1.7): 2.6 fold

— patent US20080305186A1, “Method and Composition for the Treatment of Cardiac Hypertrophy” (BOARD OF REGENTS, THE UNIVERSITY OF TEXAS SYSTEM, priority 2007, published 2008)
